Experiment: recombinant barcode read abundance after kanamycin selection (control-corrected) (log10(CPM+1)); higher = more efficient recombination; sequences stand for … in AGTGCAGAGAAAATCGGCCAGTTTTCTCTGCCTGCAGTCCGCATGCCGT…AGATTTATGCAGCGGACTGCCTTTCTCCCAAAGTGATAAACCGGACAGTATCATGGACCGGTTTTCCCGGTAATCCGTATTTGCAAGGTTGGTTTCACT; site = the 11-nt target
Method in brief: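 IS621 bridge RNA target-binding loops were paired with targets in a pooled library tested in E. coli. After co-electroporation with a donor plasmid, cells were plated in two replicates on chloramphenicol/ampicillin LB agar (control) and on chloramphenicol/ampicillin/kanamycin carrying 0.1 mM IPTG. Barcodes at recombinant junctions were counted as counts per million, averaged and control-corrected to give recombination efficiency. Values are log10(CPM+1).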
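Note: IS621 recombinase and bridge RNA in Escherichia coli cells.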

TCGGATACTTGGGTTCTAACCTGTTGCGT (site TCGGATACTAC)
recombinant barcode read abundance (log10): 2.05

TCGGATACTTGGGTTCTAACCTGTTGCGT (site TCGGATACTAG)
recombinant barcode read abundance (log10): 0.265

TCGGATACTTGGGTTCTAACCTGTTGCGT (site TCGGATACTAT)
recombinant barcode read abundance (log10): 1.41

TCGGATGCTTGGGTTCTAACCTGTTGCTT (site TCGAATGCTAG)
recombinant barcode read abundance (log10): 0.349

TCGGATGCTTGGGTTCTAACCTGTTGCTT (site TCGGATGCTAA)
recombinant barcode read abundance (log10): 0.901

TCGGGGACTTGGGTTCTAACCTGTTGCCG (site TCAGGGACTCT)
recombinant barcode read abundance (log10): 0.183

TCGGGGACTTGGGTTCTAACCTGTTGCCG (site TCGGGGACTCG)
recombinant barcode read abundance (log10): 0.601

TCGTACCCTTGGGTTCTAACCTGTTGCAA (site AAAATATCTAG)
recombinant barcode read abundance (log10): 0.083

TCGTACCCTTGGGTTCTAACCTGTTGCAA (site TCGTACCCTTT)
recombinant barcode read abundance (log10): 0.143

TCGTCTACTTGGGTTCTAACCTGTTGCTC (site ATCAACCCTTG)
recombinant barcode read abundance (log10): 0.117

TCGTCTACTTGGGTTCTAACCTGTTGCTC (site TCGTCTACTGA)
recombinant barcode read abundance (log10): 0.26

TCGTGCCCTTGGGTTCTAACCTGTTGCGT (site CCGTGCCCTAC)
recombinant barcode read abundance (log10): 0.0929

TCGTGCCCTTGGGTTCTAACCTGTTGCGT (site TCGTGCCCTAC)
recombinant barcode read abundance (log10): 0.14

TCGTTTCCTTGGGTTCTAACCTGTTGCAT (site AGCCAGGCTCC)
recombinant barcode read abundance (log10): 0.0113

TCGTTTCCTTGGGTTCTAACCTGTTGCAT (site TCGTTTCCTAT)
recombinant barcode read abundance (log10): 0.0275

TCTAAACCTTGGGTTCTAACCTGTTGCCT (site TCTAAACCTAG)
recombinant barcode read abundance (log10): 0.205

TCTAAACCTTGGGTTCTAACCTGTTGCCT (site TCTCAACCTAG)
recombinant barcode read abundance (log10): 0.0726

TCTAACACTTGGGTTCTAACCTGTTGCCT (site ACTAACACTAG)
recombinant barcode read abundance (log10): 0.0882

TCTAACACTTGGGTTCTAACCTGTTGCCT (site CCTAACACTAG)
recombinant barcode read abundance (log10): 0.0793

TCTAACACTTGGGTTCTAACCTGTTGCCT (site GCTAACACTAG)
recombinant barcode read abundance (log10): 0.0247

TCTAACACTTGGGTTCTAACCTGTTGCCT (site TCTAACACTAG)
recombinant barcode read abundance (log10): 0.206

TCTAAGGCTTGGGTTCTAACCTGTTGCCT (site TCAAAGGCTAG)
recombinant barcode read abundance (log10): 0.36

TCTAAGGCTTGGGTTCTAACCTGTTGCCT (site TCCAAGGCTAG)
recombinant barcode read abundance (log10): 0.108

TCTAAGGCTTGGGTTCTAACCTGTTGCCT (site TCGAAGGCTAG)
recombinant barcode read abundance (log10): 0.048

TCTAAGGCTTGGGTTCTAACCTGTTGCCT (site TCTAAGGCTAG)
recombinant barcode read abundance (log10): 0.043

TCTAAGTCTTGGGTTCTAACCTGTTGCCA (site TCTAAGTCTAG)
recombinant barcode read abundance (log10): 0.045

TCTAAGTCTTGGGTTCTAACCTGTTGCCA (site TCTAAGTCTCG)
recombinant barcode read abundance (log10): 0.144

TCTAAGTCTTGGGTTCTAACCTGTTGCCA (site TCTAAGTCTGG)
recombinant barcode read abundance (log10): 0.695

TCTAAGTCTTGGGTTCTAACCTGTTGCCA (site TCTAAGTCTTG)
recombinant barcode read abundance (log10): 0.0536

TCTACATCTTGGGTTCTAACCTGTTGCCT (site TCTACATCTAG)
recombinant barcode read abundance (log10): 0.0728

TCTACATCTTGGGTTCTAACCTGTTGCCT (site TCTACCTCTAG)
recombinant barcode read abundance (log10): 0.0374

TCTACATCTTGGGTTCTAACCTGTTGCCT (site TCTACGTCTAG)
recombinant barcode read abundance (log10): 0.0302

TCTACATCTTGGGTTCTAACCTGTTGCCT (site TCTACTTCTAG)
recombinant barcode read abundance (log10): 0.0355

TCTAGAACTTGGGTTCTAACCTGTTGCCT (site TCTAGAACTAG)
recombinant barcode read abundance (log10): 0.0829

TCTAGAACTTGGGTTCTAACCTGTTGCCT (site TCTAGACCTAG)
recombinant barcode read abundance (log10): 0.0178

TCTAGAACTTGGGTTCTAACCTGTTGCCT (site TCTAGAGCTAG)
recombinant barcode read abundance (log10): 0.0689

TCTAGAACTTGGGTTCTAACCTGTTGCCT (site TCTAGATCTAG)
recombinant barcode read abundance (log10): 0.0276

TCTAGACCTTGGGTTCTAACCTGTTGCCA (site TCTAGACCTTG)
recombinant barcode read abundance (log10): 0.0618

TCTAGACCTTGGGTTCTAACCTGTTGCCA (site TCTAGTCCTAG)
recombinant barcode read abundance (log10): 0.564

TCTATGTCTTGGGTTCTAACCTGTTGCCT (site TCTATGACTAG)
recombinant barcode read abundance (log10): 0.182

TCTATGTCTTGGGTTCTAACCTGTTGCCT (site TCTATGTCTAG)
recombinant barcode read abundance (log10): 0.107

TCTCAGGCTTGGGTTCTAACCTGTTGCAG (site TATCAGACTCT)
recombinant barcode read abundance (log10): 0.0549

TCTCAGGCTTGGGTTCTAACCTGTTGCAG (site TCTCAGGCTCT)
recombinant barcode read abundance (log10): 0.445

TCTCCTCCTTGGGTTCTAACCTGTTGCAT (site GAGGTCACTTA)
recombinant barcode read abundance (log10): 0.115

TCTCCTCCTTGGGTTCTAACCTGTTGCAT (site TCTCCTCCTAT)
recombinant barcode read abundance (log10): 0.679

TCTCGGTCTTGGGTTCTAACCTGTTGCCT (site TCACGGTCTAG)
recombinant barcode read abundance (log10): 0.71

TCTCGGTCTTGGGTTCTAACCTGTTGCCT (site TCTCGGTCTAG)
recombinant barcode read abundance (log10): 0.277

TCTCGTTCTTGGGTTCTAACCTGTTGCTA (site AGAGTAACTGT)
recombinant barcode read abundance (log10): 0.127

TCTCGTTCTTGGGTTCTAACCTGTTGCTA (site TCTCGTTCTTA)
recombinant barcode read abundance (log10): 0.102

TCTGATTCTTGGGTTCTAACCTGTTGCCG (site TCTGATTCTCG)
recombinant barcode read abundance (log10): 0.197

TCTGATTCTTGGGTTCTAACCTGTTGCCG (site TCTTATTCTAG)
recombinant barcode read abundance (log10): 0.133

TCTGATTCTTGGGTTCTAACCTGTTGCGT (site TCTAATTCTAC)
recombinant barcode read abundance (log10): 0.352

TCTGATTCTTGGGTTCTAACCTGTTGCGT (site TCTCATTCTAC)
recombinant barcode read abundance (log10): 0.00698

TCTGATTCTTGGGTTCTAACCTGTTGCGT (site TCTGATTCTAC)
recombinant barcode read abundance (log10): 1.4

TCTGATTCTTGGGTTCTAACCTGTTGCGT (site TCTTATTCTAC)
recombinant barcode read abundance (log10): 0.212

TCTGGCACTTGGGTTCTAACCTGTTGCCT (site TCCAGCACTAG)
recombinant barcode read abundance (log10): 0.205

TCTGGCACTTGGGTTCTAACCTGTTGCCT (site TCTGGCACTAG)
recombinant barcode read abundance (log10): 0.0487

TCTGGCCCTTGGGTTCTAACCTGTTGCCT (site CACCCTTCTGA)
recombinant barcode read abundance (log10): 0.124

TCTGGCCCTTGGGTTCTAACCTGTTGCCT (site TCTGGCCCTAG)
recombinant barcode read abundance (log10): 0.478

TCTGTATCTTGGGTTCTAACCTGTTGCCT (site ACTGTATCTAG)
recombinant barcode read abundance (log10): 0.28

TCTGTATCTTGGGTTCTAACCTGTTGCCT (site CCTGTATCTAG)
recombinant barcode read abundance (log10): 0.0921

TCTGTATCTTGGGTTCTAACCTGTTGCCT (site GCTGTATCTAG)
recombinant barcode read abundance (log10): 0.152

TCTGTATCTTGGGTTCTAACCTGTTGCCT (site TCTGTATCTAG)
recombinant barcode read abundance (log10): 0.614

TCTTAGACTTGGGTTCTAACCTGTTGCCG (site TCTTAGACTAG)
recombinant barcode read abundance (log10): 0.231

TCTTAGACTTGGGTTCTAACCTGTTGCCG (site TCTTAGACTCG)
recombinant barcode read abundance (log10): 0.232

TCTTAGACTTGGGTTCTAACCTGTTGCCT (site TCTTAGACTAG)
recombinant barcode read abundance (log10): 0.0224

TCTTAGACTTGGGTTCTAACCTGTTGCCT (site TCTTAGACTCG)
recombinant barcode read abundance (log10): 0.0132

TCTTAGACTTGGGTTCTAACCTGTTGCTT (site TCTTAGACTAA)
recombinant barcode read abundance (log10): 0.17

TCTTAGACTTGGGTTCTAACCTGTTGCTT (site TGTTGGACTAA)
recombinant barcode read abundance (log10): 0.0581

TCTTCCACTTGGGTTCTAACCTGTTGCCT (site ACTTCCACTAG)
recombinant barcode read abundance (log10): 0.0827

TCTTCCACTTGGGTTCTAACCTGTTGCCT (site CCTTCCACTAG)
recombinant barcode read abundance (log10): 0.0781

TCTTCCACTTGGGTTCTAACCTGTTGCCT (site GCTTCCACTAG)
recombinant barcode read abundance (log10): 0.0327

TCTTCCACTTGGGTTCTAACCTGTTGCCT (site TCTTCCACTAG)
recombinant barcode read abundance (log10): 0.385

TCTTCGACTTGGGTTCTAACCTGTTGCAG (site GGAAAAGCTAA)
recombinant barcode read abundance (log10): 0.0479

TCTTCGACTTGGGTTCTAACCTGTTGCAG (site TCTTCGACTCT)
recombinant barcode read abundance (log10): 0.111

TCTTTACCTTGGGTTCTAACCTGTTGCCT (site ACTTTACCTAG)
recombinant barcode read abundance (log10): 0.146

TCTTTACCTTGGGTTCTAACCTGTTGCCT (site CCTTTACCTAG)
recombinant barcode read abundance (log10): 0.182

Reference: the supplement of paper PMC11208160
